Measured values taken from ChEMBL document CHEMBL1133634, “3-Deoxyclocinnamox: the first high-affinity, nonpeptide mu-opioid antagonist lacking a phenolic hydroxyl group” (J Med Chem, 2000).

Target: Mu-type opioid receptor (Homo sapiens) (UniProt P35372)
Experiment: […] [35S]- GTPgammaS on Opioid receptor mu 1 in monkey brain membranes
Format: cell membranes
Conditions: Cercopithecidae, Membrane, target entry is the homologue from another species

Chain of Mu-type opioid receptor (Homo sapiens) (P35372 whole entry): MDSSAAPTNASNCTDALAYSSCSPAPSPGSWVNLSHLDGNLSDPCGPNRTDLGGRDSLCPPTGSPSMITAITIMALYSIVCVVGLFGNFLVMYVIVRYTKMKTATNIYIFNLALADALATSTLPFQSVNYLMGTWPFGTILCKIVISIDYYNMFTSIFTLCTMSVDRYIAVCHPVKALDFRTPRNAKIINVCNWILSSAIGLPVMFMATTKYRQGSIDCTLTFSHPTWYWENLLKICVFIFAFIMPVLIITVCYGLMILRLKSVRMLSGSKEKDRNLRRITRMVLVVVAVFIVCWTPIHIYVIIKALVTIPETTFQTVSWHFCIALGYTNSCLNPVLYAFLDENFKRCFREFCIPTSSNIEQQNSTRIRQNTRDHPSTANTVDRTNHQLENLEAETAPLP

Row | SMILES | Ke
1 | O=C(/C=C/c1ccc(Cl)cc1)NC12CCC(=O)C3Oc4cccc5c4[C@@]31CCN(CC1CC1)[C@@H]2C5 (stereo partly drawn) | 0.28 nM
2 | COc1ccc2c3c1O[C@H]1C(=O)CC[C@@]4(NC(=O)/C=C/c5ccc(Cl)cc5)[C@@H](C2)N(CC2CC2)CC[C@]314 | 6.37 nM
3 | O=C(/C=C/c1ccc(Cl)cc1)N[C@@]12CCC(=O)[C@@H]3Oc4c(O)ccc5c4[C@@]31CCN(CC1CC1)[C@@H]2C5 | 0.37 nM
